How the values were obtained:
[1] = system: MTAP^DEL and KRAS^G12D pancreatic tumor xenograft KP4 model; assay: MRTX1719 + KRAS G12D inhibitor combination study, KP4 xenograft; type: in vivo, nu/nu mice; details: MRTX1133 30 mg/kg BID IP; for Tumor volume: n=5/group, method gives mm^3, in mm³; for % TGI (Tumor Growth Inhibition): final vs initial treated tumor volume relative to vehicle, MRTX1719 100 mg/kg QD PO
Protocol: (§1) Immunodeficient female mice were implanted with human cancer models harboring homozygous deletion of the MTAP gene (MTAP^DEL) and a KRAS^G12D mutation. Mouse health was monitored daily, and caliper measurements began when tumors were palpable. Tumor volume measurements were determined utilizing the formula 0.5×L×W2 in which L refers to length and W refers to width of each tumor. When tumors reached approximately 200-300 mm^3, animals were randomized to receive A) vehicle, B) a PRMT5 inhibitor administered orally (PO) formulated in 0.5% methylcellulose (4000 cps)/0.2% Tween80 in water, C) KRAS G12D inhibitor administered via intraperitoneal injection (IP) formulated in 10% Captisol in 50 mM Citrate buffer pH 5.0, or D) the PRMT5 inhibitor and KRAS G12D inhibitor. Tumor volumes were measured twice a week (n=5/treatment group). Tumor Growth Inhibition (% TGI) was calculated when the average final treated tumor volume was greater than initial treated tumor volume using the formula: (1-(Final Drug Treated Tumor Volume—Initial Drug Treated Tumor Volume)/(Final Vehicle Treated Tumor Volume -Initial Vehicle Treated Tumor Volume))*100. Percent Regression (% Regression) was calculated when the average tumor volume of final treated tumors was less than initial treated tumor volume using the formula: (−100%)*(1−((Final treated tumor volume)/(Initial treated tumor volume)).
This example was conducted in immunodeficient female nu/nu mice that were implanted with 5×10^6 KP4 pancreatic cancer cells in 50% Matrigel. according to the study procedure described above. The PRMT5 inhibitor was MRTX1719 administered at 100 mg/kg once a day (QD). MRTX1719 used is a described herein.
(§2) The KRAS^G12D inhibitor used in this example was MRTX1133 administered at 30 mg/kg twice a day (BID). MRTX1133 used is as described herein.

[2] = system: MTAP^DEL and KRAS^G12D pancreatic tumor xenograft SU8686 model; assay: MRTX1719 + KRAS G12D inhibitor combination study, SU8686 xenograft; type: in vivo, nu/nu mice; details: for Tumor volume: MRTX1133 30 mg/kg BID IP, n=5/group, method gives mm^3
Protocol: as §1
This example was conducted in immunodeficient female nu/nu mice that were implanted with 5×10^6 SU8686 pancreatic cancer cells in 50% Matrigel. according to the study procedure described above. The PRMT5 inhibitor was MRTX1719 administered at 100 mg/kg once a day (QD). MRTX1719 used is as described herein.
as §2

[3] = Study Day 0, MRTX1719 100 mg/kg QD PO
[4] = Study Day 3, MRTX1719 100 mg/kg QD PO
[5] = Study Day 7, MRTX1719 100 mg/kg QD PO
[6] = Study Day 10, MRTX1719 100 mg/kg QD PO
[7] = Study Day 14, MRTX1719 100 mg/kg QD PO
[8] = Study Day 17, MRTX1719 100 mg/kg QD PO
[9] = Study Day 21, MRTX1719 100 mg/kg QD PO
[10] = Study Day 24, MRTX1719 100 mg/kg QD PO
[11] = Study Day 28, MRTX1719 100 mg/kg QD PO
[12] = Study Day 31, MRTX1719 100 mg/kg QD PO
[13] = Study Day 2, MRTX1719 100 mg/kg QD PO
[14] = Study Day 9, MRTX1719 100 mg/kg QD PO
[15] = Study Day 13, MRTX1719 100 mg/kg QD PO
[16] = Study Day 16, MRTX1719 100 mg/kg QD PO
[17] = Study Day 20, MRTX1719 100 mg/kg QD PO
[18] = Study Day 23, MRTX1719 100 mg/kg QD PO
[19] = Study Day 34, MRTX1719 100 mg/kg QD PO
[20] = Study Day 37, MRTX1719 100 mg/kg QD PO
[21] = Study Day 41, MRTX1719 100 mg/kg QD PO
[22] = Study Day 44, MRTX1719 100 mg/kg QD PO
[23] = Study Day −1, MRTX1719 100 mg/kg QD PO

Structure (SMILES)	Tumor volume [1, 3]	Tumor volume [1, 4]	Tumor volume [1, 5]	Tumor volume [1, 6]	Tumor volume [1, 7]	Tumor volume [1, 8]	Tumor volume [1, 9]	Tumor volume [1, 10]	% TGI (Tumor Growth Inhibition) [1]	Tumor volume [2, 13]	Tumor volume [2, 5]	Tumor volume [2, 14]	Tumor volume [2, 15]	Tumor volume [2, 16]	Tumor volume [2, 17]	Tumor volume [2, 18]	Tumor volume [2, 11]	Tumor volume [2, 12]	Tumor volume [2, 19]	Tumor volume [2, 20]	other results
C#Cc1c(F)ccc2cc(O)cc(-c3ncc4c(N5CC6CCC(C5)N6)nc(OC[C@@]56CCCN5C[C@H](F)C6)nc4c3F)c12 [MRTX1133]	276	202	132	99	80	91	144	250	53.8%	180 mm³	143 mm³	142 mm³	146 mm³	145 mm³	164 mm³	166 mm³	151 mm³	183 mm³	191 mm³	209 mm³	Tumor volume [1, 11]: 518; Tumor volume [1, 12]: 766; Tumor volume ([1]; Study Day 35, MRTX1719 100 mg/kg QD PO): 1064; Tumor volume [2, 21]: 213 mm³; Tumor volume [2, 22]: 204 mm³; Tumor volume [2, 23]: 212 mm³; % Regression ([2]; final vs initial treated tumor volume, MRTX1133 30 mg/kg BID IP alone or with MRTX1719 100 mg/kg QD PO): −4.2%
Cn1ncc(-c2ccc3c(=O)[nH]nc(CN)c3c2)c1-c1c(F)c(Cl)cc(OC2CC2)c1C#N [MRTX1719]	277	431	616	716	772	887	1222	1487	29.1%	255 mm³	317 mm³	369 mm³	415 mm³	464 mm³	467 mm³	419 mm³	396 mm³	373 mm³	372 mm³	362 mm³	Tumor volume [2, 21]: 356 mm³; Tumor volume [2, 22]: 337 mm³; Tumor volume [2, 23]: 200 mm³; % TGI (Tumor Growth Inhibition) ([2]; final vs initial treated tumor volume relative to vehicle, MRTX1719 100 mg/kg QD PO): 88.3%

Source: US20250312343A1, “COMBINATION THERAPIES USING PRMT5 INHIBITORS AND KRAS G12D INHIBITORS FOR THE TREATMENT OF CANCER” (MIRATI THERAPEUTICS, INC., priority 2024, published 2025)
